We go through seven compounds from paper PMC6199744, “Development of Chemical Proteomics for the Folateome and Analysis of the Kinetoplastid Folateome” (ACS Infectious Diseases, 2018).

Format in all cases: binding
Experiment [1] addresses T1, HeLa cell extract proteins (Homo sapiens, UniProt Q16795).
T1 construct: endogenous in cells; host or cells: HeLa cell extract
The conditions noted are these: captured protein NDUFA9; HeLa.

Experiment [2] addresses T2, HeLa cell extract proteins (Homo sapiens, UniProt Q5XKP0).
T2 construct: endogenous in cells; host or cells: HeLa cell extract
T2 sequence (Q5XKP0 1-118): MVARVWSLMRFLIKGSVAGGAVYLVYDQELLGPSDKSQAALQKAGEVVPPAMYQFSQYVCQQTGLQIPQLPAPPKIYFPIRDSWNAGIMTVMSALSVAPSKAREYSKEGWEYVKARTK
To be noted: captured protein C19ORF70; HeLa.

Experiment [3] has as its target T3, HeLa cell extract proteins (Homo sapiens, UniProt P61081).
T3 construct: endogenous in cells; host or cells: HeLa cell extract
T3 sequence (P61081 1-183): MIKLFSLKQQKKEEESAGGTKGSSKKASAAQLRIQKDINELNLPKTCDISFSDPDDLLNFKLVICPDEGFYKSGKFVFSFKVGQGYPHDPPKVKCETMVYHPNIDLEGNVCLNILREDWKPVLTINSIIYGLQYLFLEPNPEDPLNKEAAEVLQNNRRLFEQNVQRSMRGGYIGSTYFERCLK
To be noted: protein UBE2M; HeLa.

The target of experiment [4] is T4, HeLa cell extract proteins (Homo sapiens, UniProt P00390).
T4 construct: endogenous in cells; host or cells: HeLa cell extract
T4 sequence (P00390 44-522): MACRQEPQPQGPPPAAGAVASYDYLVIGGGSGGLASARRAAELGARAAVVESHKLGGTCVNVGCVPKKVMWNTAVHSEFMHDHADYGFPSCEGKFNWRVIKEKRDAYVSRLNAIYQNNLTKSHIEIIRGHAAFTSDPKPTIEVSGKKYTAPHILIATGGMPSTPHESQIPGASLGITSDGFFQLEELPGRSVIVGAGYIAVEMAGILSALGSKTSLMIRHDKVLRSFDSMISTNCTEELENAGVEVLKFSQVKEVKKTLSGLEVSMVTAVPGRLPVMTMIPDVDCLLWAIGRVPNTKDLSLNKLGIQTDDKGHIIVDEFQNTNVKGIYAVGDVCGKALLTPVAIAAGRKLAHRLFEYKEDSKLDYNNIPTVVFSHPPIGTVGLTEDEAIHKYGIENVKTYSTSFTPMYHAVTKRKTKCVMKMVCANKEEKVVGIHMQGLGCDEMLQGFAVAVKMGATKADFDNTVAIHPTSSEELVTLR
To be noted: protein GSR; HeLa.

Experiment [5] has as its target T5, HeLa cell extract proteins (Homo sapiens, UniProt Q8N0W3).
T5 construct: endogenous in cells; host or cells: HeLa cell extract
T5 sequence (Q8N0W3 1-1084): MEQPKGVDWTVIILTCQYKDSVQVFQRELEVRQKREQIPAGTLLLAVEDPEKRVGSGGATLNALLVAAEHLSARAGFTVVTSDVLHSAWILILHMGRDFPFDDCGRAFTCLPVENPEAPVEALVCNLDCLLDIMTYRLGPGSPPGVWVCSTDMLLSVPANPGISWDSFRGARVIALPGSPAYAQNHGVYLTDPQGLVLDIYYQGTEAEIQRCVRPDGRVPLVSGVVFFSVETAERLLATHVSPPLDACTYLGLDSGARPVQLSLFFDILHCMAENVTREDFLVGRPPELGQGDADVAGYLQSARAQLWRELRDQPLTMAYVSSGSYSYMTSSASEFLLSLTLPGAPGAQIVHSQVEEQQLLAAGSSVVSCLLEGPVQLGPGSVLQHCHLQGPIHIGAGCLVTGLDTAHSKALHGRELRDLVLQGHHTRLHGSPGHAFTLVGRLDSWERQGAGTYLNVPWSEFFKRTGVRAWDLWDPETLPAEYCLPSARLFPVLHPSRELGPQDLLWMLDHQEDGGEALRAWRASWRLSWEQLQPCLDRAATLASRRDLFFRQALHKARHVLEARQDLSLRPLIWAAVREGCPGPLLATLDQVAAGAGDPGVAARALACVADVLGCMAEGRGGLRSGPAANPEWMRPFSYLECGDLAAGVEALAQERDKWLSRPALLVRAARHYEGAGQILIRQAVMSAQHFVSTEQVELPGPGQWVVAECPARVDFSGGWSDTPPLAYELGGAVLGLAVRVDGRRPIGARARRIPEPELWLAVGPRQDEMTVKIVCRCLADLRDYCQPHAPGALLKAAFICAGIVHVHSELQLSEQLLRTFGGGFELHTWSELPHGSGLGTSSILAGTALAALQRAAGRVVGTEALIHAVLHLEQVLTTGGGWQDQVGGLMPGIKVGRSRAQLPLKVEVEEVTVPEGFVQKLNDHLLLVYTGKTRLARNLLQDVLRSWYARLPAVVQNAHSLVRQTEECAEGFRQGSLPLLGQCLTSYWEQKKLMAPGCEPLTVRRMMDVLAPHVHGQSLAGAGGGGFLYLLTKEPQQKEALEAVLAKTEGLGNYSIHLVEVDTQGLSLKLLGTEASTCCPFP
The conditions noted are these: protein FUK; HeLa.

In experiment [6] the target is T6, HeLa cell extract proteins (Homo sapiens, UniProt P60510).
T6 construct: endogenous in cells; host or cells: HeLa cell extract
T6 sequence (P60510 1-307): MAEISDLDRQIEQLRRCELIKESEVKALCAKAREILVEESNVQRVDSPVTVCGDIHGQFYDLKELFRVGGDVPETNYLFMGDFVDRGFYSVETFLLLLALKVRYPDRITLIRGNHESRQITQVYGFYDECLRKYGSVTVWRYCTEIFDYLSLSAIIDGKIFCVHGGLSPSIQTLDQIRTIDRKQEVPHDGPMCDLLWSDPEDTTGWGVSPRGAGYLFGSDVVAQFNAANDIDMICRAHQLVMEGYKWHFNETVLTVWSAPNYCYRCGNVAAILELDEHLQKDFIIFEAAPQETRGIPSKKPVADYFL

Experiment [7] has as its target T7, HeLa cell extract proteins (Homo sapiens, UniProt P35613).
T7 construct: endogenous in cells; host or cells: HeLa cell extract
T7 sequence (P35613 22-385): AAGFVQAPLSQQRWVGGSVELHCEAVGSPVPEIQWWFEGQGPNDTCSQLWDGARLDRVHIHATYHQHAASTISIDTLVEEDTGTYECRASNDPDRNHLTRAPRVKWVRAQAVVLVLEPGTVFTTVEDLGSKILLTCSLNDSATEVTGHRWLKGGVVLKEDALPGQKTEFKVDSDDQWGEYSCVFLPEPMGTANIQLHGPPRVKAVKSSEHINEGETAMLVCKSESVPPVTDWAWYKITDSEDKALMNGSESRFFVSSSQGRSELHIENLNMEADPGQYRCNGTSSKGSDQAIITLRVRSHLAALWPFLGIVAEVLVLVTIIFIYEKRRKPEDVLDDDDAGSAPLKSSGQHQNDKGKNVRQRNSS

Where two headings read alike, the source gives them in different places.

T1 sequence (Q16795 36-377): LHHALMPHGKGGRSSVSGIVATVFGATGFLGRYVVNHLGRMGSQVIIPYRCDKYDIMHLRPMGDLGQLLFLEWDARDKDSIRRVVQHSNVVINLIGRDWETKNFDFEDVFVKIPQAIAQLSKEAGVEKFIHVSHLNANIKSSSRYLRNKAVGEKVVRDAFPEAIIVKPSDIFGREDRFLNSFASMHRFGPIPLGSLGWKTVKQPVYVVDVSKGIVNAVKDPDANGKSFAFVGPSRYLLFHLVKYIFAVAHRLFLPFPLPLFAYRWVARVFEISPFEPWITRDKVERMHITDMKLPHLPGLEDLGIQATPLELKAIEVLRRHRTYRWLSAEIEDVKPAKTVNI

Consider `CCCCCCOc1cccc(Cc2cnc(N)nc2N)c1` [compound 2], for which the “fold changes relative to vehicle control” value stood at 0.87 in experiment [1]; 1.14 in experiment [2]; 1.71 in experiment [3]; 1.15 in experiment [4]; 1.11 in experiment [5].

In the case of `NCCOCCOCC(=O)Nc1nc2ncc(CNc3ccc(C(=O)NC(CCC(=O)O)C(=O)O)cc3)nc2c(=O)[nH]1` (centres unmarked) [compound 6], the “fold changes relative to vehicle control” value turned out to be 0.95 in experiment [6] (protein PPP4C, HeLa) and 1.02 in experiment [7] (protein BSG, HeLa).

On to `CCCCCCOc1ccc(Cc2cnc(N)nc2N)cc1` [compound 1], for which the “fold changes relative to vehicle control” value in experiment [1] amounted to 1.01; in experiment [2] it was 1.16; in experiment [3], 1.2; in experiment [4], 0.94; in experiment [5] it was 0.96.

Turning to `Nc1nc2c(c(=O)[nH]1)N(C=O)C(CNc1ccc(C(=O)N[C@@H](CCC(=O)O)C(=O)O)cc1)CN2` (some centres unmarked) [LEU, leucovorin], the “fold changes relative to vehicle control” value amounted to 0.82 in experiment [6] (protein PPP4C, HeLa) and 0.87 in experiment [7] (protein BSG, HeLa).

As for `NCCCNc1ccc(C(=O)NC(CCC(=O)O)C(=O)O)cc1` (centres unmarked) [compound 7], the “fold changes relative to vehicle control” value is 1 in experiment [6] (protein PPP4C, HeLa) and 0.8 in experiment [7] (protein BSG, HeLa).

As to `Nc1nc2[nH]cc(CCc3ccc(C(=O)N[C@@H](CCC(=O)O)C(=O)O)cc3)c2c(=O)[nH]1` [PTX, pemetrexed], the “fold changes relative to vehicle control” value in experiment [6] stood at 0.95; in experiment [7] it was 0.88.

`Nc1nc2cccc(-c3ccccc3)c2n1Cc1ccc(Cl)c(Cl)c1` [compound 3]: the “fold changes relative to vehicle control” value in experiment [1] was 1.04; in experiment [2], 1.13; in experiment [3] it was 0.83; in experiment [4], 1; in experiment [5] it was 1.07.
